# Assay: Incorporation of glycoconjugate into SDBS-rich vesicles (SEC, colorimetric detection)
# Assay type: physicochemical
# Conditions: SDBS/CTAT vesicles, twelve carbon tail
# From the text: In an experiment, glycoconjugates consisting of eight carbon tails were used. In all SDBS-rich vesicle test cases 18-25% of the conjugate eluted with the vesicle fractions. At the incorporation levels summarized in Table 1, the ratio of carbohydrate conjugate to surfactant is approximately 1:100. […] In another experiment, a glucose glycoconjugate with a twelve carbon tail, n-dodecyl-β-D-glucopyranoside (C12-glucose), was used. […] The method for preparing these vesicles is now described. Vesicles were prepared with the surfactants […], and C12-glu. […] Total surfactant concentration was kept constant at 27 mM. The mole ratio of SDBS to CTAT was 3:1 in all cases (70:30 w/w). For vesicle samples containing different mole fractions of C12-glu, the amount of SDBS and CTAT was adjusted accordingly to keep the stated ratio of ionic surfactants constant. […] Samples were then passed through a 0.45 μm syringe filter to remove impurity particles such as dust.
compound,measurement,value
"CCCCCCCCCCCCO[C@@H]1O[C@H](CO)[C@@H](O)[C@H](O)[C@H]1O [C12-glucose, n-dodecyl-β-D-glucopyranoside]",share of the vesicle bilayer that can be composed of the glycoconjugate,up to 40 mole percent
